# Measurements taken from PubChem BioAssay AID2060331 (Molecular Pharmacology Branch, DTP, NCI, 2025).
# “And” between values parts separate entries of the source, which are not always exact repeats. Equal values may be shown once.
# Test system: Hs578T multi-cell spheroids, viability
# Test: Anticancer human tumor Hs578T cell line growth inhibition [IpAb];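 note: drug exposure lasted 7 days before readout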
# Details: for viability, T/C: stronger effect = lower value
# Procedure, shortened: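 Combinations with ipatasertib or abemaciclib were tested on tumour spheroids holding HUVEC (25%) and MSC (15%) alongside 60% malignant cells. Top concentration was at or near clinical Cmax (10 microM if undefined), descending in half-log steps.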
# [1] = curve of first compound, second compound 0.1 µM
# [2] = curve of first compound, second compound 0.316 µM
# [3] = curve of first compound, second compound 1 µM
# [4] = second compound 0.1 µM, first compound 0.0316 µM
# [5] = second compound 0.1 µM, first compound 0.1 µM
# [6] = second compound 0.1 µM, first compound 0.316 µM
# [7] = second compound 0.1 µM, first compound 1 µM
# [8] = second compound 0.316 µM, first compound 0.0316 µM
# [9] = second compound 0.316 µM, first compound 0.1 µM
# [10] = second compound 0.316 µM, first compound 0.316 µM
# [11] = second compound 0.316 µM, first compound 1 µM
# [12] = second compound 1 µM, first compound 0.0316 µM
# [13] = second compound 1 µM, first compound 0.1 µM
# [14] = second compound 1 µM, first compound 0.316 µM
# [15] = second compound 1 µM, first compound 1 µM
# [16] = curve of first compound, second compound 0.01 µM
# [17] = curve of first compound, second compound 0.0316 µM
compound,measurement,setting,value
C=CCn1c(=O)c2cnc(Nc3ccc(N4CCN(C)CC4)cc3)nc2n1-c1cccc(C(C)(C)O)n1 + CC(C)NCC(C(=O)N1CCN(c2ncnc3c2C(C)CC3O)CC1)c1ccc(Cl)cc1,IC50,[1],0.28 µM
same,IC50,[2],0.221 µM
same,IC50,[3],0.129 µM
same,IC50,"curve of first compound, second compound 3.16 µM",0.0394 µM
same,IC50,"curve of first compound, second compound 10 µM",< 0.0316 µM
same,"viability, T/C",[4],103%
same,"viability, T/C",[5],74.2%
same,"viability, T/C",[6],49.4%
same,"viability, T/C",[7],26.9%
same,"viability, T/C","second compound 0.1 µM, first compound 3.16 µM",20.5%
same,"viability, T/C","second compound 0.1 µM, first compound 10 µM",19.2%
same,"viability, T/C",[8],74.1%
same,"viability, T/C",[9],62.9%
same,"viability, T/C",[10],44.3%
same,"viability, T/C",[11],27.6%
same,"viability, T/C","second compound 0.316 µM, first compound 3.16 µM",22.8%
same,"viability, T/C","second compound 0.316 µM, first compound 10 µM",16.7%
same,"viability, T/C",[12],64.9%
same,"viability, T/C",[13],54.7%
same,"viability, T/C",[14],35.7%
same,"viability, T/C",[15],25.7%
same,"viability, T/C","second compound 1 µM, first compound 3.16 µM",25.8%
same,"viability, T/C","second compound 1 µM, first compound 10 µM",17.6%
same,"viability, T/C","second compound 3.16 µM, first compound 0.0316 µM",51.2%
same,"viability, T/C","second compound 3.16 µM, first compound 0.1 µM",44.4%
same,"viability, T/C","second compound 3.16 µM, first compound 0.316 µM",29.1%
same,"viability, T/C","second compound 3.16 µM, first compound 1 µM",23.7%
same,"viability, T/C","second compound 3.16 µM, first compound 3.16 µM",20.5%
same,"viability, T/C","second compound 3.16 µM, first compound 10 µM",11.9%
same,"viability, T/C","second compound 10 µM, first compound 0.0316 µM",49.2%
same,"viability, T/C","second compound 10 µM, first compound 0.1 µM",37.2%
same,"viability, T/C","second compound 10 µM, first compound 0.316 µM",22.6%
same,"viability, T/C","second compound 10 µM, first compound 1 µM",21%
same,"viability, T/C","second compound 10 µM, first compound 3.16 µM",16.3%
same,"viability, T/C","second compound 10 µM, first compound 10 µM",5.72%
CCCS(=O)(=O)Nc1ccc(F)c(C(=O)c2c[nH]c3ncc(-c4ccc(Cl)cc4)cc23)c1F,"viability, T/C",compound 0.0316 µM,95.3% and 98.5%
same,"viability, T/C",compound 0.1 µM,101% and 109%
same,"viability, T/C",compound 0.316 µM,109% and 105%
same,"viability, T/C",compound 1 µM,96.1% and 102%
same,"viability, T/C",compound 3.16 µM,81.1% and 85.8%
same,"viability, T/C",compound 10 µM,12.5% and 11.4%
same,IC50,curve of compound,5.31 µM and 5.51 µM
CC(C)(C)c1cnc(CSc2cnc(NC(=O)C3CCNCC3)s2)o1 + CCN1CCN(Cc2ccc(Nc3ncc(F)c(-c4cc(F)c5nc(C)n(C(C)C)c5c4)n3)nc2)CC1,IC50,[16],0.181 µM
same,IC50,[17],0.181 µM
same,IC50,[1],0.167 µM
same,IC50,[2],0.169 µM
same,IC50,[3],0.115 µM
same,"viability, T/C","second compound 0.01 µM, first compound 0.00949 µM",101%
same,"viability, T/C","second compound 0.01 µM, first compound 0.03 µM",114%
same,"viability, T/C","second compound 0.01 µM, first compound 0.0949 µM",114%
same,"viability, T/C","second compound 0.01 µM, first compound 0.3 µM",3.69%
same,"viability, T/C","second compound 0.01 µM, first compound 0.949 µM",3.37%
same,"viability, T/C","second compound 0.01 µM, first compound 3 µM",3.55%
same,"viability, T/C","second compound 0.0316 µM, first compound 0.00949 µM",99%
same,"viability, T/C","second compound 0.0316 µM, first compound 0.03 µM",113%
same,"viability, T/C","second compound 0.0316 µM, first compound 0.0949 µM",118%
same,"viability, T/C","second compound 0.0316 µM, first compound 0.3 µM",2.94%
same,"viability, T/C","second compound 0.0316 µM, first compound 0.949 µM",2.55%
same,"viability, T/C","second compound 0.0316 µM, first compound 3 µM",2.82%
same,"viability, T/C","second compound 0.1 µM, first compound 0.00949 µM",100%
same,"viability, T/C","second compound 0.1 µM, first compound 0.03 µM",99.9%
same,"viability, T/C","second compound 0.1 µM, first compound 0.0949 µM",95.3%
same,"viability, T/C","second compound 0.1 µM, first compound 0.3 µM",2.53%
same,"viability, T/C","second compound 0.1 µM, first compound 0.949 µM",2.48%
same,"viability, T/C","second compound 0.1 µM, first compound 3 µM",3.11%
same,"viability, T/C","second compound 0.316 µM, first compound 0.00949 µM",104%
same,"viability, T/C","second compound 0.316 µM, first compound 0.03 µM",104%
same,"viability, T/C","second compound 0.316 µM, first compound 0.0949 µM",97.2%
same,"viability, T/C","second compound 0.316 µM, first compound 0.3 µM",2.46%
same,"viability, T/C","second compound 0.316 µM, first compound 0.949 µM",3.54%
same,"viability, T/C","second compound 0.316 µM, first compound 3 µM",3.59%
same,"viability, T/C","second compound 1 µM, first compound 0.00949 µM",109%
same,"viability, T/C","second compound 1 µM, first compound 0.03 µM",107%
same,"viability, T/C","second compound 1 µM, first compound 0.0949 µM",59.6%
same,"viability, T/C","second compound 1 µM, first compound 0.3 µM",2.32%
same,"viability, T/C","second compound 1 µM, first compound 0.949 µM",2.79%
same,"viability, T/C","second compound 1 µM, first compound 3 µM",4.16%
CC(C)NCC(C(=O)N1CCN(c2ncnc3c2C(C)CC3O)CC1)c1ccc(Cl)cc1 (centres undefined),"viability, T/C",compound 0.1 µM,96.2% [middle of 13 runs]
same,"viability, T/C",compound 0.316 µM,83.9% [middle of 13 runs]
same,"viability, T/C",compound 1 µM,66.8% [middle of 13 runs]
same,"viability, T/C",compound 3.16 µM,53.8% [middle of 12 runs]
same,"viability, T/C",compound 10 µM,45% [middle of 13 runs]
CC1(C)CCC(CN2CCN(c3ccc(C(=O)NS(=O)(=O)c4ccc(NCC5CCOCC5)c([N+](=O)[O-])c4)c(Oc4cnc5[nH]ccc5c4)c3)CC2)=C(c2ccc(Cl)cc2)C1,"viability, T/C",compound 0.0316 µM,105% and 104%
same,"viability, T/C",compound 0.1 µM,103% and 110%
same,"viability, T/C",compound 0.316 µM,99.5% and 102%
same,"viability, T/C",compound 1 µM,104%
same,"viability, T/C",compound 3.16 µM,89.2% and 92.6%
same,"viability, T/C",compound 10 µM,17% and 19%
same,IC50,curve of compound,5.91 µM and 6.16 µM
COc1c(OCCCN2CCOCC2)ccc2c3n(c(=NC(=O)c4cnc(N)nc4)nc12)CCN3 + CCN1CCN(Cc2ccc(Nc3ncc(F)c(-c4cc(F)c5nc(C)n(C(C)C)c5c4)n3)nc2)CC1,IC50,[16],0.0228 µM
same,IC50,[17],0.0207 µM
same,IC50,[1],0.0152 µM
same,IC50,[2],0.0171 µM
same,IC50,[3],0.0253 µM
same,"viability, T/C","second compound 0.01 µM, first compound 0.00316 µM",88.7%
same,"viability, T/C","second compound 0.01 µM, first compound 0.01 µM",65.9%
same,"viability, T/C","second compound 0.01 µM, first compound 0.0316 µM",43.3%
same,"viability, T/C","second compound 0.01 µM, first compound 0.1 µM",26.9%
same,"viability, T/C","second compound 0.01 µM, first compound 0.316 µM",16%
same,"viability, T/C","second compound 0.01 µM, first compound 1 µM",8.09%
same,"viability, T/C","second compound 0.0316 µM, first compound 0.00316 µM",75.6%
same,"viability, T/C","second compound 0.0316 µM, first compound 0.01 µM",63.6%
same,"viability, T/C","second compound 0.0316 µM, first compound 0.0316 µM",40.5%
same,"viability, T/C","second compound 0.0316 µM, first compound 0.1 µM",28%
same,"viability, T/C","second compound 0.0316 µM, first compound 0.316 µM",11.6%
same,"viability, T/C","second compound 0.0316 µM, first compound 1 µM",7.23%
same,"viability, T/C","second compound 0.1 µM, first compound 0.00316 µM",75.8%
same,"viability, T/C","second compound 0.1 µM, first compound 0.01 µM",53.5%
same,"viability, T/C",[4],40.9%
same,"viability, T/C",[5],26.8%
same,"viability, T/C",[6],13.8%
same,"viability, T/C",[7],6.99%
same,"viability, T/C","second compound 0.316 µM, first compound 0.00316 µM",82.1%
same,"viability, T/C","second compound 0.316 µM, first compound 0.01 µM",55.8%
same,"viability, T/C",[8],42.1%
same,"viability, T/C",[9],26.1%
same,"viability, T/C",[10],15.5%
same,"viability, T/C",[11],7.2%
same,"viability, T/C","second compound 1 µM, first compound 0.00316 µM",91.5%
same,"viability, T/C","second compound 1 µM, first compound 0.01 µM",67.4%
same,"viability, T/C",[12],43.1%
same,"viability, T/C",[13],32.5%
same,"viability, T/C",[14],20.1%
same,"viability, T/C",[15],9.99%
